ChEMBL document CHEMBL5584320, “Pemuchiamides A and B, Proline-Rich Linear Lipopeptides, Isolated from a Marine Hormoscilla sp. Cyanobacterium” (J Nat Prod, 2024)
pIC50: −log10 of the molar value.

Columns and labels:
HeLa = experiment: Growth inhibition of human HeLa cells assessed as reduction cell viability incubated for 72 hrs by MTT assay; assay type: functional, cell-based
HL-60 = experiment: Growth inhibition of human HL-60 cells assessed as reduction cell viability incubated for 72 hrs by MTT assay; assay type: functional, cell-based; conditions: HL-60, 72 h
[1] = tested on: Trypanosoma brucei rhodesiense; experiment: Antitrypanosomal activity against blood stream form of Trypanosoma brucei rhodesiense IL-1501 assessed as growth inhibition incubated for 69 hrs by alamar blue staining based microplate fluorescence scanner analysis; assay type: functional, organism-based; conditions: IL-1501, 69 h

Structure (SMILES) | pIC50 (HeLa) | pIC50 (HL-60) | pIC50 [1]
CC[C@H](C)[C@H](NC(=O)[C@@H]1CCCN1C(=O)[C@@H](CC(C)C)NC(=O)[C@H]1CSC([C@@H]2CCCN2C(=O)[C@@H]2CCCN2C(=O)[C@@H](Cc2ccccc2)N(C)C(=O)CNC(=O)[C@@H](NC(=O)C[C@H](O)CNC(=O)CCCc2ccc(O)cc2)C(C)C)=N1)C(=O)N[C@H](Cc1ccccc1)C(=O)N1CCC[C@H]1C(=O)OC | 5.41 | 5.68 | 5.27
CC[C@H](C)[C@H](NC(=O)[C@@H]1CCCN1C(=O)[C@@H](CC(C)C)NC(=O)[C@H]1CSC([C@@H]2CCCN2C(=O)[C@@H]2CCCN2C(=O)[C@@H](Cc2ccccc2)N(C)C(=O)CNC(=O)[C@@H](NC(=O)CCCNC(=O)CCCc2ccc(O)cc2)C(C)C)=N1)C(=O)N[C@H](Cc1ccccc1)C(=O)N1CCC[C@H]1C(=O)OC | 5.54 | 5.85 | 6.20
COc1cccc2c1C(=O)c1c(O)c3c(c(O)c1C2=O)C[C@@](O)(C(=O)CO)C[C@@H]3O[C@H]1C[C@H](N)[C@H](O)[C@H](C)O1 [DOXORUBICIN] | 6.54 | 7.96 | –
N=C(N)c1ccc(OCCCCCOc2ccc(C(=N)N)cc2)cc1 [PENTAMIDINE] | – | – | 8.40
